From patent publication EP4711369A1, “1H-[1,2,3]TRIAZOLO[4,5-H]QUINAZOLINE COMPOUNDS AS PROTEIN KINASE INHIBITORS” (Chengdu Cynogen Bio-Pharmaceutical Technology Co., Ltd., priority 2023, dated 2024)
pIC50: −log10 of the molar value.

Columns and labels:
[1] = system: human breast cancer HCC1806 cells; assay: Assay of cell proliferation (CellTiter-Glo); assay type: cell-based; conditions: Homo sapiens, 144 h, 6 days, read-out: HCC1806 IC50 of cell proliferation inhibitory activity
Procedure: (§1) Human ovarian cancer OVCAR3 cells were inoculated at 2000 cells/well in a 96-well plate and cultured in RPMI 1640 medium containing 20% FBS at 37 °C and 5% CO2 overnight in an incubator. The next day, the compounds were subjected to a three-fold gradient dilution in DMSO from a peak concentration of 2 mM to give nine concentrations. Then, the compounds were diluted 3:200 in growth medium, and finally diluted 1:3 in the cell culture supernatant to give a culture supernatant containing 0.5% DMSO, with the compounds treatment concentrations ranging from 10 µM to 0.1 nM. The cells and the compounds were incubated at 37 °C and 5% CO2 for 6 days. Then, cell proliferation assay was performed using the CellTiter-Glo (manufacturer: Promega, Cat. No. G9242), and luminescence signals were read using a multifunctional microplate reader (model: Synergy H1, manufacturer: BiotTek). IC50 values were calculated by fitting of the concentration-response curves with a four-parameter analysis method using GraphPad Prism software.
(§2) The cell proliferation assays of human colon cancer HCT-116 cells, human breast cancer MCF-7 cells, human breast cancer HCC1806 cells, human acute myeloid leukemia MV-4-11 cells, and human gastric cancer MKN1 cells were performed according to the same method, with different inoculation densities set according to different cell growth characteristics.

CDK4/cyclin D1 = CDK4/cyclin D1 (Homo sapiens, UniProt P11802); assay: Assay of kinase activity (ADP-Glo); assay type: biochemical; conditions: kinase inhibitory activity
Procedure: (§3) CDK/cyclin catalyzes the phosphorylation of a substrate, which concomitantly consumes ATP and produces ADP. The inhibition rate (%) in the presence of a small molecule inhibitor was assessed by measuring the amount of ADP generated in the reaction. The assay compounds were thoroughly mixed by vortexing and then diluted in DMSO to 100× the assay concentration. […] A 2× kinase solution was prepared using a 1× kinase reaction buffer (50 mM Hepes, 10 mM MgCl2, 0.01% Brij35, 2 mM DTT). 2 µL of the kinase solution was transferred to the 384-well assay plate, and the plate was centrifuged at 1000 rpm for 60 seconds in a microplate centrifuge. The plate was incubated at 25 °C in a biochemical incubator for 10 minutes. A 2x mixture of substrate and ATP was prepared in the kinase reaction buffer. Then, 2 µL of the mixture of substrate and ATP was added to the 384-well assay plate. The plate was centrifuged at 1000 rpm for 60 seconds in a microplate centrifuge, and incubated at 25 °C in a biochemical incubator for 60 minutes. 4 µL of ADP-Glo Reagent (Cat. No. V9103, manufacturer: Promega) incubated at 25 °C in a biochemical incubator was added to each well of the 384-well assay plate. The plate was centrifuged at 1000 rpm for 60 seconds in a microplate centrifuge, and incubated at 25 °C in a biochemical incubator for 40 minutes. 8 µL of Detection Reagent incubated at 25 °C in a biochemical incubator was added to each well of the 384-well assay plate. The plate was centrifuged at 1000 rpm for 60 seconds in a microplate centrifuge, and incubated at 25 °C in a biochemical incubator for 40 minutes. Finally, luminescence signals were read using a multifunctional microplate reader (model: PHERAstar FSX, manufacturer: BMG). IC50 values were calculated by nonlinear fitting of the concentration-response curves using GraphPad Prism software.

CDK2/cyclin E = CDK2/cyclin E (Homo sapiens, UniProt P24941); assay: Assay of kinase activity (ADP-Glo); assay type: biochemical; conditions: kinase inhibitory activity, read-out: CDK2/E1 IC50
Procedure: as §3

[2] = system: Human ovarian cancer OVCAR3 cells; assay: Assay of cell proliferation (CellTiter-Glo); assay type: cell-based; conditions: Homo sapiens, OVCAR-3, 144 h, 6 days, read-out: OVCAR3 IC50 of cell proliferation inhibitory activity
Procedure: as §1

CDK6/cyclin D3 = CDK6/cyclin D3 (Homo sapiens, UniProt Q00534); assay: Assay of kinase activity (ADP-Glo); assay type: biochemical; conditions: kinase inhibitory activity
Procedure: (§4) CDK/cyclin catalyzes the phosphorylation of a substrate, which concomitantly consumes ATP and produces ADP. The inhibition rate (%) in the presence of a small molecule inhibitor was assessed by measuring the amount of ADP generated in the reaction. The assay compounds were thoroughly mixed by vortexing and then diluted in DMSO to 100× the assay concentration. 40 nL of a compound was transferred to a 384-well assay plate using a nanoliter pipetting system (ECHO® 655 SYSTEM). A 2× kinase solution was prepared using a 1× kinase reaction buffer (50 mM Hepes, 10 mM MgCl2, 0.01% Brij35, 2 mM DTT). 2 µL of the kinase solution was transferred to the 384-well assay plate, and the plate was centrifuged at 1000 rpm for 60 seconds in a microplate centrifuge. The plate was incubated at 25 °C in a biochemical incubator for 10 minutes. A 2x mixture of substrate and ATP was prepared in the kinase reaction buffer. Then, 2 µL of the mixture of substrate and ATP was added to the 384-well assay plate. The plate was centrifuged at 1000 rpm for 60 seconds in a microplate centrifuge, and incubated at 25 °C in a biochemical incubator for 60 minutes. 4 µL of ADP-Glo Reagent (Cat. No. V9103, manufacturer: Promega) incubated at 25 °C in a biochemical incubator was added to each well of the 384-well assay plate. The plate was centrifuged at 1000 rpm for 60 seconds in a microplate centrifuge, and incubated at 25 °C in a biochemical incubator for 40 minutes. 8 µL of Detection Reagent incubated at 25 °C in a biochemical incubator was added to each well of the 384-well assay plate. The plate was centrifuged at 1000 rpm for 60 seconds in a microplate centrifuge, and incubated at 25 °C in a biochemical incubator for 40 minutes. Finally, luminescence signals were read using a multifunctional microplate reader (model: PHERAstar FSX, manufacturer: BMG). IC50 values were calculated by nonlinear fitting of the concentration-response curves using GraphPad Prism software.

CDK9/cyclin T1 = CDK9/cyclin T1 (Homo sapiens, UniProt P50750); assay: Assay of kinase activity (ADP-Glo); assay type: biochemical; conditions: kinase inhibitory activity
Procedure: as §4

[3] = system: human gastric cancer MKN1 cells; assay: Assay of cell proliferation (CellTiter-Glo); assay type: cell-based; conditions: Homo sapiens, MKN-1, 144 h; MNK1, 6 days; read-out: MKN1 IC50 of cell proliferation inhibitory activity
Procedure: as §1, §2

CDK4/cyclin D1, sequence (P11802 whole entry, species assumed): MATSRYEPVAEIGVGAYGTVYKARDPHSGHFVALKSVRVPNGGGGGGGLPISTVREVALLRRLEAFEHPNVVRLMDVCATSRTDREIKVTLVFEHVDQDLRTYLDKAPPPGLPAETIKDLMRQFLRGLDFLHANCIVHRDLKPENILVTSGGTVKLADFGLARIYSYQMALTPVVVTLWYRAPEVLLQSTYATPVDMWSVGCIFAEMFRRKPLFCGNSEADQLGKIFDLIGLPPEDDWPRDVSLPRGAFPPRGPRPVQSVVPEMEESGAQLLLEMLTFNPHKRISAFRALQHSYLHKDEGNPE
CDK4/cyclin D1, sequence (P24385 whole entry partner, species assumed): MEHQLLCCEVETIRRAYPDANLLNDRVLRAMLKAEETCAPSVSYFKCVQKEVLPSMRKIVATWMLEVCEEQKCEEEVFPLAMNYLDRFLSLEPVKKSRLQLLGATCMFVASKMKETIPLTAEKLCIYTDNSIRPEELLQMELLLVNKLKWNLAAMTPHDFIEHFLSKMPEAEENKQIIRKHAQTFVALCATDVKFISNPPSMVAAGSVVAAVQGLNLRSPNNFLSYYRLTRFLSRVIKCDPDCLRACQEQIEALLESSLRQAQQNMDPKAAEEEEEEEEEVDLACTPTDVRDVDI
CDK6/cyclin D3, sequence (Q00534 whole entry, species assumed): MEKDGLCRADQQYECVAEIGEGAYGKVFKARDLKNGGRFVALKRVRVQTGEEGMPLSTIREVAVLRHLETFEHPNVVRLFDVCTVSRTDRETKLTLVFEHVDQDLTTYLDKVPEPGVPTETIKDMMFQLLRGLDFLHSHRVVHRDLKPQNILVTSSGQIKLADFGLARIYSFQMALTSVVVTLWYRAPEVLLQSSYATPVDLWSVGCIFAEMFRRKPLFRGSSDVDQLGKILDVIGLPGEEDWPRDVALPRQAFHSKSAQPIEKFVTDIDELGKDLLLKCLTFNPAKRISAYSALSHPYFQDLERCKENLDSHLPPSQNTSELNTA
CDK6/cyclin D3, sequence (P30281 whole entry partner, species assumed): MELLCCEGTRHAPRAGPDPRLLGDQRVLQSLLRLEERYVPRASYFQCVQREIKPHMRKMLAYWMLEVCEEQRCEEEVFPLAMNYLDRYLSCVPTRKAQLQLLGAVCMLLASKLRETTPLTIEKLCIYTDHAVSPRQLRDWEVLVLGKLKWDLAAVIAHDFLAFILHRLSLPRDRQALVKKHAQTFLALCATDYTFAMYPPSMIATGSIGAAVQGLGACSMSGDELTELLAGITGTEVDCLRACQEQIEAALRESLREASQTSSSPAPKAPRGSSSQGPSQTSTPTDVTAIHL
CDK9/cyclin T1, sequence (P50750 whole entry, species assumed): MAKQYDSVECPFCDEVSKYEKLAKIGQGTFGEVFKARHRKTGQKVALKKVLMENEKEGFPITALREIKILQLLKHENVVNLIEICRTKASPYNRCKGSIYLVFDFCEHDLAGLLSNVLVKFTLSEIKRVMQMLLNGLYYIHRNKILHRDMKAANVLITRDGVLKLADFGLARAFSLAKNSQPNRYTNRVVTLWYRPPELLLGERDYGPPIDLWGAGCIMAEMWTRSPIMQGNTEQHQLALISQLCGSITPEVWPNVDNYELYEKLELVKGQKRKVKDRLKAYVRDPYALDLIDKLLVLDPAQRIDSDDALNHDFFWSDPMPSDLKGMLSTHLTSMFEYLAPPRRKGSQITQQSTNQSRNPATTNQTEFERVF
CDK9/cyclin T1, sequence (O60563 whole entry partner, species assumed): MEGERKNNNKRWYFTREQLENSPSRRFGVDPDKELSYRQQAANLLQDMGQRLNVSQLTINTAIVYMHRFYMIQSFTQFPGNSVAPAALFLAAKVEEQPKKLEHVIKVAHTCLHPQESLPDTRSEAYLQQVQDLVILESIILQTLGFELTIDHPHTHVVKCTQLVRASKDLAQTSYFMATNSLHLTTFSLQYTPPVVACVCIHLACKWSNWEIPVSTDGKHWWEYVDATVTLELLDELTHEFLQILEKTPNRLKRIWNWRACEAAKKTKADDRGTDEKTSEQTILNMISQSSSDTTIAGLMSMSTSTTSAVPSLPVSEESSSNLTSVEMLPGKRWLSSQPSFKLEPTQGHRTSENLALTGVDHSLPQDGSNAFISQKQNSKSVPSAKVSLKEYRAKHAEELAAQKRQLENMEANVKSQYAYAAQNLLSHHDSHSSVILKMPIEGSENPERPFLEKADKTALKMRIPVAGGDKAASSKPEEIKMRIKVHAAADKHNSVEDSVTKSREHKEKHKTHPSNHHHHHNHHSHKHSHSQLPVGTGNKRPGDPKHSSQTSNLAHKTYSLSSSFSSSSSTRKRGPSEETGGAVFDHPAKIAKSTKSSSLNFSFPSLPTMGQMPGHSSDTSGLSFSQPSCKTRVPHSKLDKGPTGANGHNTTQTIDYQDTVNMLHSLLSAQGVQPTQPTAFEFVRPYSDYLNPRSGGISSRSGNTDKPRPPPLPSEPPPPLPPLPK

Structure (SMILES) | pIC50 [1] | pIC50 (CDK4/cyclin D1) | pIC50 (CDK2/cyclin E) | pIC50 [2] | pIC50 (CDK6/cyclin D3) | pIC50 (CDK9/cyclin T1) | pIC50 [3]
CC(C)n1nnc2ccc3cnc(Nc4ccc(C(=O)N5CCC(N(C)C)CC5)cc4)nc3c21 [Example I-15, (4-(Dimethylamino)piperidin-1-yl)(4-((1-isopropyl-1H-[1,2,3]triazolo[4,5-H]quinazolin-8-yl)amino)phenyl)metha none] | 6.75 | 8.70 | 9.00 | 6.58 | 7.03 | 7.36 | 
CC(C)n1nnc2ccc3cnc(Nc4ccc(C(=O)N5CCN(C)CC5)c(F)c4)nc3c21 [Example I-26, (2-Fluoro-4-((1-isopropyl-1H-[1,2,3]triazolo[4,5-H]quinazolin-8-yl)amino)phenyl)(4-methylpiperazin-1-yl)methanone] | 6.36 | 8.40 | 9.00 | 7.35 | 7.72 | 7.80 | 7.39
CCN1CCN(C(=O)c2ccc(Nc3ncc4ccc5nnn(C(C)C)c5c4n3)cc2)CC1 [Example I-29, (4-Ethylpiperazin-1-yl)(4-((1-isopropyl-1H-[1,2,3]triazolo[4,5-H]quinazolin-8-yl)amino)phenyl)metha none] | 6.68 | 8.70 | 9.00 | 7.40 | 7.92 | 8.22 | 7.82
CC(C)N1CCN(C(=O)c2ccc(Nc3ncc4ccc5nnn(C(C)C)c5c4n3)cc2)CC1 [Example I-30, (4-Isopropylpiperazin-1-yl)(4-((1-isopropyl-1H-[1,2,3]triazolo[4,5-H]quinazolin-8-yl)amino)phenyl)metha none] | 6.82 | 8.70 | 9.00 | 7.72 | 7.03 | 7.36 | 7.70
CC(C)n1nnc2ccc3cnc(Nc4ccc(C(=O)N5CCN(CCCO)CC5)cc4)nc3c21 [Example I-31, (4-(3-Hydroxypropyl)piperazin-1-yl)(4-((1-isopropyl-1H-[1,2,3]triazolo[4,5-H]quinazolin-8-yl)amino)phenyl)metha none] | 6.56 | 8.10 | 8.15 | 6.71 | 7.05 | 6.42 | 7.17
N[C@H]1CCN(C(=O)c2ccc(Nc3ncc4ccc5nnn(C6CCCC6)c5c4n3)cc2)C1 [Example I-38, (S)-(3-Aminopyrrolidin-1-yl)(4-((1-cyclopentyl-1H-[1,2,3]triazolo[4,5-H]quinazolin-8-yl)amino)phenyl)methanone] | 7.89 | 9.30 | 10.30 | 8.10 | 8.52 | 8.40 | 9.00
CN[C@H]1CCN(C(=O)c2ccc(Nc3ncc4ccc5nnn(C6CCCC6)c5c4n3)cc2)C1 [Example I-39, (S)-(4-((1-cyclopentyl-1H-[1,2,3]triazolo[4,5-H]quinazolin-8-yl)amino)phenyl)(3-(methylamino)pyrrolidin-1-yl)methanone] | 8.15 | 9.15 | 10.15 | 8.30 | 8.40 | 8.70 | 9.00
CN(C)[C@H]1CCN(C(=O)c2ccc(Nc3ncc4ccc5nnn(C6CCCC6)c5c4n3)cc2)C1 [Example I-40, (S)-(4-((1-cyclopentyl-1H-[1,2,3]triazolo[4,5-H]quinazolin-8-yl)amino)phenyl)(3-(dimethylamino)pyrrolidin-1-yl)methanone] | 7.80 | 9.15 | 10.22 | 8.00 | 8.52 | 8.70 | 8.30
O=C(c1ccc(Nc2ncc3ccc4nnn(C5CCCC5)c4c3n2)cc1)N1CCCNCC1 [Example I-41, (4-((1-Cyclopentyl-1H-[1,2,3]triazolo[4,5-H]quinazolin-8-yl)amino)phenyl)(1,4-diazepan-1-yl)methanone] | 7.82 | 9.00 | 10.10 | 7.96 | 8.30 | 8.70 | 8.40
C[C@@H](CO)n1nnc2ccc3cnc(Nc4ccc(C(=O)N5CCNCC5)cc4)nc3c21 [Example I-48, (S)-(4-((1-(1-Hydroxypropan-2-yl)-1H-[1,2,3]triazolo[4,5-H]quinazolin-8-yl)amino)phenyl)(piperazin-1-yl)methanone] | 5.26 | 8.15 | 8.52 |  | 6.69 | 6.46 | 
C[C@@H](CO)n1nnc2ccc3cnc(Nc4ccc(C(=O)N5CCOCC5)cc4)nc3c21 [Example I-49, (S)-(4-((1-(1-Hydroxypropan-2-yl)-1H-[1,2,3]triazolo[4,5-H]quinazolin-8-yl)amino)phenyl)(morpholino)methanone] | 5.67 | 7.68 | 8.52 | 5.86 | 6.40 | 6.41 | 
CC(C)(O)Cn1nnc2ccc3cnc(Nc4ccc(C(=O)N5CCNCC5)cc4)nc3c21 [Example I-52, (4-((1-(2-Hydroxy-2-methylpropyl)-1H-[1,2,3]triazolo[4,5-H]quinazolin-8-yl)amino)phenyl)(piperazin-1-yl)methanone] | 5.29 | 8.00 | 8.40 |  | 6.90 | 6.38 | 
CC(C)(O)Cn1nnc2ccc3cnc(Nc4ccc(C(=O)N5CCOCC5)cc4)nc3c21 [Example I-53, (4-((1-(2-Hydroxy-2-methylpropyl)-1H-[1,2,3]triazolo[4,5-H]quinazolin-8-yl)amino)phenyl)(morpholino)methanone] | 5.50 | 7.31 | 8.10 | 5.76 | 6.10 | 6.00 | 
